Some test systems named below: UACC-257; UO-31; NCI-H226; A498; MDA-MB-435; SF-539; SF-295; SNB-75; MDA-MB-231; A549; MCF7; DU-145; MOLT-4; COLO 205; U-251; TK-10; SNB-19; HOP-92; SK-MEL-2; T47D.
Holding throughout (assay): NCI-60 cell line screen, 48 h

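Method: 48-hour compound exposure of cells in 96-well plates, five concentrations, linear interpolation of endpoints. GI50: concentration for 50% inhibition of growth.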 Calls of active or inactive are those of the source. No stated cut-off is given here; in the data, active = GI50 up to about 1.1 µM and inactive = higher. Where a SMILES comes first, the peptide text is derived from it. The star is where a group is joined. Boc = CC(C)(C)OC(=O)* Bounds are passed on as bounds.

In the case of `CCOC(=O)Nc1nc2cc(Cn3cccc3)ccc2[nH]1`, the GI50 with UACC-257 was 3.82 µM (inactive); in the test with UO-31 it was 14.4 µM (inactive); in the test on NCI-H226 it was 15.8 µM (inactive); with A498 it was 1.7 µM (inactive); in the test with MDA-MB-435, 0.123 µM (active); with SF-539, 0.865 µM (active). For the same compound, the GI50 is 0.807 µM (active) in the test on SF-295; 0.356 µM (active) in the test with SNB-75; 1.57 µM (inactive) in the test on MDA-MB-231; 1.22 µM (inactive) in the test on A549; 1.7 µM (inactive) with MCF7; 1.78 µM (inactive) in the test on DU-145. Also, the GI50 in the test with MOLT-4 is 0.64 µM (active); with COLO 205 it was 1.84 µM (inactive); with U-251, 1.2 µM (inactive); in the test with TK-10 it was 19.5 µM (inactive); with SNB-19 it was 1.83 µM (inactive); in the test with HOP-92 it was 32.2 µM (inactive). Moreover, the GI50 with SK-MEL-2 is 2.01 µM (inactive).

On to `O=C(CC(CC(=O)Oc1c(Br)cc(Br)cc1C(=O)O)C(=O)Oc1c(Br)cc(Br)cc1C(=O)O)Oc1c(Br)cc(Br)cc1C(=O)O`, for which the GI50 in the test on UACC-257 was 83.6 µM (inactive); with UO-31, 36.5 µM (inactive); in the test with NCI-H226, 20.7 µM (inactive); in the test with A498, 81.5 µM (inactive); with SF-539 it was 48.1 µM (inactive); in the test on SF-295, 71.3 µM (inactive). Besides, the GI50 was 26.1 µM (inactive) in the test with SNB-75; 47.5 µM (inactive) in the test on A549; 46.5 µM (inactive) in the test with MOLT-4; > 100 µM (inactive) with COLO 205; 46.6 µM (inactive) in the test on U-251; 51.4 µM (inactive) in the test on TK-10. The GI50 in the test with SNB-19 is 48.8 µM (inactive); in the test with HOP-92, 16.5 µM (inactive); with SK-MEL-2, 39.2 µM (inactive).

Regarding `COc1cccc(NC(=O)C(=O)C(C(C)=O)c2nc3ccc(Cl)cc3nc2O)c1` (stereo unspecified), the GI50 in the test with UACC-257, in the test with UO-31, with NCI-H226, in the test with A498, with SF-539 and with SF-295 was > 100 µM (inactive) each time. The GI50 in the test with SNB-75 was 54.7 µM (inactive); in the test on A549 it was > 100 µM (inactive); in the test on MOLT-4, > 100 µM (inactive); in the test with COLO 205 it was > 100 µM (inactive); in the test with U-251, > 100 µM (inactive); in the test on TK-10, > 100 µM (inactive). In addition, the GI50 in the test on SNB-19, in the test with HOP-92 and in the test with SK-MEL-2 was > 100 µM (inactive) in each case.

In the case of `CN1C(=O)C2C(=O)N(Cc3ccccc3)CC(=O)N2c2cccnc21` (stereo unspecified), the GI50 in the test on UACC-257, in the test with T47D, in the test with UO-31, in the test with NCI-H226, with A498 and in the test on MDA-MB-435 was > 100 µM (inactive) throughout. The GI50 in the test on SF-539, in the test on SF-295, with SNB-75, in the test with MDA-MB-231, with A549 and in the test on MCF7 was > 100 µM (inactive) each time. Moreover, the GI50 in the test with MOLT-4, in the test on COLO 205, in the test on U-251, in the test on TK-10, with SNB-19 and with HOP-92 was > 100 µM (inactive) throughout. Besides, the GI50 with SK-MEL-2 was > 100 µM (inactive).

Consider `CCN(CC)C(=O)COc1ccc(Br)cc1Br`, for which the GI50 with UACC-257, with UO-31, in the test with NCI-H226, with A498, with SF-539 and in the test on SF-295 was > 100 µM (inactive) in each case. In addition, the GI50 in the test on SNB-75 is 83.6 µM (inactive); in the test on A549 it was > 100 µM (inactive); with MOLT-4, > 100 µM (inactive); with COLO 205, > 100 µM (inactive); with U-251, > 100 µM (inactive); in the test on TK-10, > 100 µM (inactive). The GI50 with SNB-19 was > 100 µM (inactive); with HOP-92 it was 87.5 µM (inactive); in the test with SK-MEL-2, > 100 µM (inactive).

Regarding `O=C1CCC(=O)c2sccc2N1`, the GI50 with UACC-257, in the test on UO-31, with NCI-H226, with A498, in the test with SF-539 and in the test with SF-295 was > 100 µM (inactive) throughout. In addition, the GI50 with SNB-75, in the test with A549, with MOLT-4, in the test with COLO 205, with U-251 and with TK-10 was > 100 µM (inactive) in each case. The GI50 in the test with SNB-19, with HOP-92 and in the test with SK-MEL-2 was > 100 µM (inactive) each time.

`O=C1OC(OCC#CCOC2OC(=O)C(Cl)=C2Cl)C(Cl)=C1Cl` (stereo unspecified): the GI50 in the test with UACC-257 was 15 µM (inactive); with T47D, 10.7 µM (inactive); in the test with UO-31 it was 11.6 µM (inactive); with MDA-MB-435, 12.2 µM (inactive); in the test with SF-539, 16.5 µM (inactive); in the test on SF-295 it was 20.7 µM (inactive). In addition, the GI50 in the test on SNB-75 was 12.4 µM (inactive); with A549 it was 18.4 µM (inactive); with MCF7 it was 6.17 µM (inactive); in the test with DU-145, 18.6 µM (inactive); in the test on MOLT-4, 2.43 µM (inactive); in the test with COLO 205 it was 7.41 µM (inactive). In addition, the values for the GI50 in the test with TK-10, in the test with SNB-19 and in the test on SK-MEL-2 were 9.16 µM (inactive), 16.1 µM (inactive) and 15.8 µM (inactive), respectively.

For the compound `CCOc1ccc(NC(=O)C2=C(C)NC(C)=C(C(=O)Nc3ccc(OCC)cc3)C2c2ccccc2)cc1`, the GI50 with UACC-257 was > 100 µM (inactive); in the test with UO-31, 29.2 µM (inactive); with NCI-H226, > 100 µM (inactive); with A498 it was > 100 µM (inactive); in the test with SF-539 it was > 100 µM (inactive); with SF-295, > 100 µM (inactive). In addition, the GI50 with SNB-75 is 95.7 µM (inactive); in the test with A549, > 100 µM (inactive); in the test with MOLT-4 it was 44.8 µM (inactive); with COLO 205, > 100 µM (inactive); in the test with U-251, > 100 µM (inactive); in the test with TK-10, > 100 µM (inactive). Besides, the results for the GI50 in the test with SNB-19, with HOP-92 and in the test on SK-MEL-2 were > 100 µM (inactive), > 100 µM (inactive) and 56.8 µM (inactive), respectively.

For `Cc1ccc(-c2nc(Cc3n[nH]c(-c4ccc(C)cc4)n3)n[nH]2)cc1`, the GI50 in the test on UACC-257 is > 100 µM (inactive); with UO-31 it was > 100 µM (inactive); in the test on MDA-MB-435, > 100 µM (inactive); in the test with SF-539, > 100 µM (inactive); in the test with SF-295, > 100 µM (inactive); with SNB-75, 3.2 µM (inactive). Also, the GI50 in the test on MDA-MB-231, with A549, in the test with MCF7, with DU-145, in the test on MOLT-4 and in the test with COLO 205 was > 100 µM (inactive) in each case. Also, the GI50 in the test on U-251 was 3.71 µM (inactive); in the test with TK-10 it was > 100 µM (inactive); in the test with SNB-19, 44.2 µM (inactive); in the test on HOP-92, > 100 µM (inactive); with SK-MEL-2 it was > 100 µM (inactive).

For `O=C1CCc2cc3c(cc21)C(C(=O)O)CC3` (stereo unspecified), the GI50 in the test with UACC-257, in the test with T47D, in the test on UO-31, in the test with NCI-H226, in the test on SF-539 and with SF-295 was > 100 µM (inactive) throughout. Besides, the GI50 in the test with SNB-75 was 87.5 µM (inactive); with MDA-MB-231 it was > 100 µM (inactive); in the test on A549, > 100 µM (inactive); with MCF7, > 100 µM (inactive); in the test on DU-145, > 100 µM (inactive); in the test with MOLT-4 it was > 100 µM (inactive). Besides, the GI50 in the test on COLO 205, in the test with U-251, in the test on TK-10, in the test with SNB-19 and with SK-MEL-2 was > 100 µM (inactive) throughout.

Take `Cc1cnc2[nH]c(-c3cccc(Cl)c3)cc(=O)c2c1`: the GI50 was 1.05 µM (active) in the test on UACC-257; 1.7 µM (inactive) in the test with UO-31; 0.0708 µM (active) in the test on NCI-H226; 0.0556 µM (active) with A498; < 0.01 µM (active) in the test on MDA-MB-435; 0.0194 µM (active) in the test with SF-539. Further, the GI50 in the test on SF-295 was 0.0169 µM (active); in the test with SNB-75, 0.0378 µM (active); in the test with MDA-MB-231 it was 0.0569 µM (active); in the test on A549 it was 0.0676 µM (active); with MCF7 it was 0.381 µM (active); with DU-145 it was 0.154 µM (active). The GI50 in the test on MOLT-4 is 0.0338 µM (active); in the test on COLO 205, 0.0807 µM (active); in the test with U-251, 0.0484 µM (active); with TK-10 it was 22.8 µM (inactive); in the test on SNB-19 it was 0.0769 µM (active); in the test with HOP-92, > 100 µM (inactive). Moreover, the GI50 in the test with SK-MEL-2 was 0.0889 µM (active).

As for `COC(=O)C(Cc1c[nH]c2ccccc12)NC(=O)C(Cc1c[nH]c2ccccc12)NC(=O)C(Cc1c[nH]c2ccccc12)NC(=O)C(Cc1c[nH]c2ccccc12)NC(=O)C(Cc1c[nH]c2ccccc12)NC(=O)C(Cc1c[nH]c2ccccc12)NC(=O)C(Cc1c[nH]c2ccccc12)NC(=O)C(Cc1c[nH]c2ccccc12)NC(=O)OC(C)(C)C` (stereo unspecified) (Boc-WWWWWWWW-OMe; configuration not given here), the GI50 in the test with UACC-257 is 43.5 µM (inactive); in the test on UO-31 it was 53.7 µM (inactive); in the test on NCI-H226, 49.3 µM (inactive); in the test on A498, 20 µM (inactive); with MDA-MB-435 it was > 100 µM (inactive); in the test on SNB-75, > 100 µM (inactive). The GI50 is > 100 µM (inactive) in the test with MDA-MB-231; 86.5 µM (inactive) in the test on A549; > 100 µM (inactive) with MCF7; 35.5 µM (inactive) with DU-145; 44.5 µM (inactive) in the test on MOLT-4; 74.6 µM (inactive) with U-251. The figures for the GI50 in the test on TK-10, in the test on SNB-19 and in the test on SK-MEL-2 were 34 µM (inactive), 46.2 µM (inactive) and 33.6 µM (inactive), respectively.
